The values that follow come from PubChem BioAssay (NCI).

Assay in all cases: NCI anticancer screen, dose series, 48 h
Assay [1] deals with MCF7 breast.
In assay [2] the test system is UACC-257 melanoma.
Assay [3] relates to OVCAR-5 ovarian.
The test system of assay [4] is KM12 colon.
In assay [5] the test system is HCT-15 colon.
In assay [6] the test system is SW-620 colon.
Assay [7] has as its system OVCAR-8 ovarian.
Assay [8] has as its system ACHN renal.
Assay [9] concerns BT-549 breast.
For assay [10], the system named is PC-3 prostate.

The structures appear in SMILES notation. “And” between values parts separate entries of the source, which are not always exact repeats. Equal values may be shown once.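 Test compounds were applied to cells in 96-well plates for 48 hours at 5 doses. Here, GI50 denotes the concentration required for 50% inhibition of growth. TGI denotes the concentration required for complete inhibition of growth.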

In the case of `O=C1Nc2ccc(O)cc2/C1=C\c1ccncc1`, the GI50 is 4.18 µM in assay [1]; 13.2 µM in [2]; 27.2 µM in assay [3]; 16.9 µM in [4]; 11 µM in assay [5]; 25.5 µM in [6]. The GI50 in assay [7] is 25.4 µM; in assay [8] it was 11.7 µM; in assay [9], 15.2 µM; in assay [10], 26.9 µM. For the same compound, the TGI came to 38.2 µM in assay [1]; 33.3 µM in assay [2]; 57 µM in assay [3]; 46.4 µM in assay [4]; 39 µM in [5]; 58.3 µM in assay [6]. Also, the TGI in [7] is over 100 µM; in assay [8] it was 27.9 µM; in [9], 43.6 µM; in assay [10], 77.8 µM.
`CCC(CC)c1cc(N[C@H]2CC[C@H](N)C2)n2nccc2n1`: the GI50 in [1] was 0.328 µM; in assay [2], 1.84 µM; in assay [3], 0.533 µM; in assay [4], 1.7 µM; in assay [5], 2.23 µM; in [6], 0.626 µM. The GI50 in assay [7] is 2.77 µM; in [8], 1.44 µM; in assay [9], 1.36 µM; in [10] it was 2.43 µM. In addition, the TGI in [1] was over 100 µM; in assay [2], 5.87 µM; in assay [3] it was over 100 µM; in [4], over 100 µM; in assay [5], over 100 µM; in assay [6] it was over 100 µM. The TGI in assay [7] was over 100 µM; in [8], over 100 µM; in assay [9] it was 3.22 µM; in assay [10], over 100 µM.
As to `CCOC(=O)Nc1ccc2nc(N3CCCCCC3)sc2c1`, the GI50 is 0.857 µM in [1]; 15.2 µM in [2]; 8.28 µM in [3]; 0.661 µM in assay [4]; 0.84 µM in [5]; 0.567 µM in [6]. The GI50 is 4.51 µM in assay [7], 9.6 µM in [8], 12 µM in assay [9] and 3.49 µM in assay [10]. For the same compound, the TGI is over 80.6 µM in assay [1]; 97.2 µM in assay [2]; over 100 µM in assay [3]; over 57.5 µM in assay [4]; over 46.2 µM in assay [5]; over 100 µM in [6]. In addition, the TGI in assay [7] is over 63.4 µM; in [8], over 74.1 µM; in assay [9], 49.6 µM; in assay [10], over 100 µM.
As for `O=C(NCCCl)NCCN1c2nc3ccccc3cc2Sc2cc3ccccc3nc21`, the GI50 in [1] is 1.02 µM; in [2], 1.37 µM; in assay [3], 4.24 µM; in assay [4] it was 2.67 µM; in [5] it was 2.74 µM; in assay [6], 1.16 µM. Also, the GI50 in [7] is 3.03 µM; in [8], 3.02 µM; in assay [9], 7.01 µM; in assay [10], 0.719 µM. The TGI in assay [1] was 2.59 µM; in [2], 6.55 µM; in assay [3], over 44.5 µM; in assay [4] it was 16.1 µM; in assay [5], over 40 µM; in assay [6] it was 2.95 µM. Besides, the TGI in assay [7] is 20.8 µM; in assay [8], over 45.9 µM; in assay [9], over 48.6 µM; in assay [10], 20.1 µM.
Consider `O=C(/C=C\c1cc(Br)ccc1O)/C=C/c1cc(Br)ccc1O`, for which the GI50 in assay [1] was 0.339 µM; in assay [2] it was 1.54 µM; in [3], 1.67 µM; in assay [4], 1.25 µM; in assay [5], 0.384 µM; in assay [6], 0.379 µM. The GI50 in [7] is 0.345 µM; in assay [8], 0.661 µM; in assay [9], 0.897 µM; in assay [10], 0.63 µM. The TGI in assay [1] was determined as 2.13 µM; in assay [2], 4.09 µM; in [3], 3.33 µM; in [4] it was 2.72 µM; in [5], 1.76 µM; in assay [6] it was 1.61 µM. In addition, the TGI in [7] amounted to 11.6 µM; in [8] it was 2.05 µM; in assay [9] it was 3.84 µM; in assay [10], 3.08 µM.
For the compound `C=C1C[C@@H](O)[C@@H](Br)C(C)(C)[C@]12CCC(C)(Br)C(Cl)C2` (stereo not given in full), the GI50 in assay [1] is 16.8 µM; in [2], 18.6 µM; in assay [3], 1.23 µM; in assay [4] it was 0.28 µM; in assay [5], 23.7 µM; in assay [6] it was 15.2 µM. The GI50 in [7] was 21.7 µM; in [8], 18.5 µM; in [9], 18.9 µM; in assay [10], 0.107 µM. The TGI in assay [1] was > 50 µM and 31.1 µM; in assay [2], > 50 µM and 34.2 µM; in assay [3], 26.6 µM and 8.52 µM; in assay [4], 16.7 µM and 10.5 µM; in [5], > 50 µM and 52.4 µM; in assay [6] it was > 50 µM and 33 µM. In addition, the TGI in assay [7] was > 50 µM and 50.1 µM; in [8] it was > 50 µM and 34.1 µM; in assay [9] it was > 50 µM and 38.3 µM; in [10], 10.8 µM and 2.29 µM.
For `Nc1nc(=S)c2ncn(C3OC(CO)C(O)C3O)c2[nH]1` (stereo not given), the GI50 was 0.389 µM in assay [1]; 31.8 µM in [2]; 0.827 µM in assay [3]; 1.79 µM in [4]; 0.92 µM in assay [5]; 1.7 µM in assay [6]. In addition, the GI50 in assay [7] was 0.903 µM; in [8], 0.944 µM; in assay [9] it was 2.12 µM; in assay [10], 2.34 µM. Moreover, the TGI in assay [1] was over 70.6 µM; in assay [2], over 100 µM; in assay [3] it was over 100 µM; in assay [4], over 27.8 µM; in [5], over 100 µM; in assay [6], over 100 µM. Further, the TGI in [7] was over 100 µM; in [8], 42.6 µM; in assay [9], over 100 µM; in assay [10] it was over 100 µM.
